How the values were obtained:
Helios = molecular target: T1, Helios (Homo sapiens, UniProt Q96SW2+Q9UKS7); experiment: Helios Cellular Degradation Assay (Helios, Jurkat); assay type: cell-based; settings: Jurkat cells, 72 h incubation, flow cytometry with Helios-PE antibody; read-out: Helios Jurkat IC50
T1 construct: endogenous in cells; host or cells: Jurkat cells
Protocol: (§1) Jurkat cells were plated at 80,000 cells/well in 40 μL RPMI+10% FBS in a 384 well cell culture plate prior to using acoustic dispensing technology for adding compound of interest. Cell cultures were incubated for 72 h at 37° C. and 5% CO2. In order to facilitate analysis, cell cultures were spun down at 200 rpm for 5 min and the supernatant was discarded. […] Subsequently, 30 μL of 1× Permeabilization buffer was added prior to centrifuging the cells and discarding the supernatant. Stained cells were resuspended in 25 μL of flow cytometry staining buffer (PBS+0.2% BSA) and analyzed using an Intellicyt Ique Plus flow cytometer.

Ikaros = molecular target: T2, Ikaros (Homo sapiens, UniProt Q13422+Q96SW2); experiment: Helios Cellular Degradation Assay (Ikaros, Jurkat); assay type: cell-based; settings: Jurkat cells, 72 h incubation, flow cytometry with Ikaros-Alexa488 antibody; read-out: Ikaros Jurkat IC50
T2 construct: endogenous in cells; host or cells: Jurkat cells
T2 sequence (Q13422 whole entry): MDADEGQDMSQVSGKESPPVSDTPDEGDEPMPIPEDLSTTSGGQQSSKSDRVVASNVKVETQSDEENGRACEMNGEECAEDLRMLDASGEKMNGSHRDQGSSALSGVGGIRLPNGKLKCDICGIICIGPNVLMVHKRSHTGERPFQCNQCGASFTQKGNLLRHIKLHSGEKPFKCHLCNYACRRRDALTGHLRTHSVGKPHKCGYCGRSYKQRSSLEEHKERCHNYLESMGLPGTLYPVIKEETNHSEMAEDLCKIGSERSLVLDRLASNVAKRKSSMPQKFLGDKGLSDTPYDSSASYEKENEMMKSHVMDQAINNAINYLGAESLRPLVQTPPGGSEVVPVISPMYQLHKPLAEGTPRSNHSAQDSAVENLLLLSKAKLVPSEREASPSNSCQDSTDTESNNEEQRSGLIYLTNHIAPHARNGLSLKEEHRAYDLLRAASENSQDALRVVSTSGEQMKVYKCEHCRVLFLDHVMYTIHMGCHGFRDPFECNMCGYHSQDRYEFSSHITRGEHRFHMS
T2 sequence (Q96SW2 whole entry): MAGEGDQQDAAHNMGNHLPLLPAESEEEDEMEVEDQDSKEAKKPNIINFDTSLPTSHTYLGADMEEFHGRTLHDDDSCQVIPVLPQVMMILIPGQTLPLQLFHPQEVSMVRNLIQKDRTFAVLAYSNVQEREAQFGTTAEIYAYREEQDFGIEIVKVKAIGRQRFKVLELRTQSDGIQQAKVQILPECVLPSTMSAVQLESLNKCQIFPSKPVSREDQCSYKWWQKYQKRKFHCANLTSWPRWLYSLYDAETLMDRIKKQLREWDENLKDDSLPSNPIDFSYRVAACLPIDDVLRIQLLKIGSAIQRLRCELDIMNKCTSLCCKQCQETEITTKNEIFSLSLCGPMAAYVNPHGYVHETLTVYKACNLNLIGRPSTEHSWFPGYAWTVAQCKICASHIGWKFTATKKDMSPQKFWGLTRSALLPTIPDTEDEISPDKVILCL
T2 sequence (Q16531 whole entry partner): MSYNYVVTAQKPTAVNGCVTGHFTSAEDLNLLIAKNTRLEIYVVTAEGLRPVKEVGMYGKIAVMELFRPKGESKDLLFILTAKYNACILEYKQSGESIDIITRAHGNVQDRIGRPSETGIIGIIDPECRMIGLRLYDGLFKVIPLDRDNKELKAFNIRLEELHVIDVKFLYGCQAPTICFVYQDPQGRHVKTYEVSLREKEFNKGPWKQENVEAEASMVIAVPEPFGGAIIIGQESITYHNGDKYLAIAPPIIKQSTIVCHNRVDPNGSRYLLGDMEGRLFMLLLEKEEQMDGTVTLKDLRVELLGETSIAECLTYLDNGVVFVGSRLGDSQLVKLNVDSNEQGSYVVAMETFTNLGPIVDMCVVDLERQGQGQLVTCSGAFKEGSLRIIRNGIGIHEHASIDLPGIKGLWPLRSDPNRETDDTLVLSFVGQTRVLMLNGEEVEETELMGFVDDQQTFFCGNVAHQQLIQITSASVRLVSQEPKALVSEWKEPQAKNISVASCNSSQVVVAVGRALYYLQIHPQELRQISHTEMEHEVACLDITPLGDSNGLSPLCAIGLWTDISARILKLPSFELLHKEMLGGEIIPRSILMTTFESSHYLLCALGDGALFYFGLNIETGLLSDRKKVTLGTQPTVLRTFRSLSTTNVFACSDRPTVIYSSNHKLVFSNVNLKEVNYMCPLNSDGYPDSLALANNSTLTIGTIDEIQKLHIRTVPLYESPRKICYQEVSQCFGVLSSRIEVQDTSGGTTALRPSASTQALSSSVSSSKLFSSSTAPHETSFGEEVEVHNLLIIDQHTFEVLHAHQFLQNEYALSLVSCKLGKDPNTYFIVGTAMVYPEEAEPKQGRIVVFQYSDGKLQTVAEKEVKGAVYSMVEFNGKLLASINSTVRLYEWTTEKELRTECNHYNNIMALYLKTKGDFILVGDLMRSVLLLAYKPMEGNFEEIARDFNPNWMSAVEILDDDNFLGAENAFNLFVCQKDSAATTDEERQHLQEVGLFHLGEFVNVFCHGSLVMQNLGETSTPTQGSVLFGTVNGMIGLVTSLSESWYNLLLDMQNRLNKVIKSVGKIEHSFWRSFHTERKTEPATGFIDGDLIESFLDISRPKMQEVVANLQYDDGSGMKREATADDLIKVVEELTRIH
Protocol: as §1

T1 sequence (Q9UKS7 whole entry): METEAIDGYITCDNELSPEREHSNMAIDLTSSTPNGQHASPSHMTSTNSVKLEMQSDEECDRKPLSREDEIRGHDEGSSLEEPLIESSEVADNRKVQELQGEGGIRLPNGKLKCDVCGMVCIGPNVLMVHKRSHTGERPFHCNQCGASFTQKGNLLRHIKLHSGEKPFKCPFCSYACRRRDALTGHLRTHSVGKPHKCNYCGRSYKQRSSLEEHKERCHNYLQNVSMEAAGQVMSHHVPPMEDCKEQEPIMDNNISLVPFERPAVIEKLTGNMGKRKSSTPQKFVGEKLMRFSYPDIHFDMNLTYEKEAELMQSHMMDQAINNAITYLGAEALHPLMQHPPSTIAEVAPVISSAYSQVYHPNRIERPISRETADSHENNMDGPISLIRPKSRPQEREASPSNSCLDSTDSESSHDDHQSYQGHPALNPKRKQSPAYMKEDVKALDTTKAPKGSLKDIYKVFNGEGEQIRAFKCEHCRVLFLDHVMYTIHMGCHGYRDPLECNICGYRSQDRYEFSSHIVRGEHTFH
T1 sequence (Q96SW2 whole entry): as the sequence (Q96SW2 whole entry) above
T1 sequence (Q16531 whole entry partner): as the sequence (Q16531 whole entry partner) above

Row | DC50 (Helios) | DC50 (Ikaros) | SMILES
1 | 0.057 µM | > 10 µM | CNc1nc(-c2ccc3c(c2)[C@@H](C)N(C2CCC(=O)NC2=O)C3=O)cc(C)c1C#N (single isomer, unassigned) [Example 15]
2 | 0.2 µM | > 10 µM | Cc1cc(-c2ccc3c(c2)C(C)N(C2CCC(=O)NC2=O)C3=O)nc(N)c1F (single isomer, unassigned) [Example 22]
3 | 1 µM | > 10 µM | CNc1nc(-c2ccc3c(c2)[C@H](C)N(C2CCC(=O)NC2=O)C3=O)cc(C)c1C#N (single isomer, unassigned) [Example 14]
4 | 0.024 µM | > 10 µM | Cc1cc(-c2ccc3c(c2F)[C@@H](C)N(C2CCC(=O)NC2=O)C3=O)nc(N)c1F (stereo partly drawn) [Example 29, 3-((R)-5-(6-amino-5-fluoro-4-methylpyridin-2-yl)-4-fluoro-3-methyl-1-oxoisoindolin-2-yl)piperidine-2,6-dione]
5 |  | > 10 µM | Cc1cc(N)nc(-c2ccc3c(c2F)CN(C2CCC(=O)NC2=O)C3=O)c1F (stereo not shown) [Example 20, 3-(5-(6-Amino-3-fluoro-4-methylpyridin-2-yl)-4-fluoro-1-oxoisoindolin-2-yl)piperidine-2,6-dione]
6 | 0.003 µM | > 10 µM | Cc1cc(-c2ccc3c(c2)[C@@H](C)N(C2CCC(=O)NC2=O)C3=O)nc(N)c1C (single isomer, unassigned) [Example 9]
7 | 1.3 µM | > 10 µM | C[C@@H]1c2c(ccc(-c3cc(C(F)(F)F)cc(N)n3)c2F)C(=O)N1C1CCC(=O)NC1=O (stereo partly drawn) [Example 25, 3-((R)-5-(6-Amino-4-(trifluoromethyl)pyridin-2-yl)-4-fluoro-3-methyl-1-oxoisoindolin-2-yl)piperidine-2,6-dione]
8 | 0.001 µM | > 10 µM | Cc1cc(-c2ccc3c(c2F)CN(C2CCC(=O)NC2=O)C3=O)nc(N)c1C (stereo not shown) [Example 7, 3-(5-(6-Amino-4,5-dimethylpyridin-2-yl)-4-fluoro-1-oxoisoindolin-2-yl)piperidine-2,6-dione]
9 | 0.006 µM | > 10 µM | Cc1cc(-c2ccc3c(c2)[C@@H](C)N(C2CCC(=O)NC2=O)C3=O)nc(N)c1C#N (single isomer, unassigned) [Example 11]
10 | 0.0058 µM | > 10 µM | Cc1cc(-c2ccc3c(c2)C(C)N(C2CCC(=O)NC2=O)C3=O)nc(N)c1F (single isomer, unassigned) [Example 21]
11 | 2.8 µM | > 10 µM | CNc1nc(-c2ccc3c(c2)[C@@H](C)N(C2CCC(=O)NC2=O)C3=O)cc(C)c1C (single isomer, unassigned) [Example 13]
12 | 0.0035 µM | > 10 µM | Cc1cc(-c2ccc3c(c2F)CN(C2CCC(=O)NC2=O)C3=O)nc(N)c1F (stereo not shown) [Example 19, 3-(5-(6-Amino-5-fluoro-4-methylpyridin-2-yl)-4-fluoro-1-oxoisoindolin-2-yl)piperidine-2,6-dione]
13 | 0.16 µM | > 10 µM | Cc1cc(N)nc(-c2ccc3c(c2F)[C@@H](C)N(C2CCC(=O)NC2=O)C3=O)c1 (stereo partly drawn) [Example 24, 3-((R)-5-(6-Amino-4-methylpyridin-2-yl)-4-fluoro-3-methyl-1-oxoisoindolin-2-yl) piperidine-2,6-dione]
14 | 0.31 µM | > 10 µM | Cc1cc(-c2ccc3c(c2)[C@H](C)N(C2CCC(=O)NC2=O)C3=O)nc(N)c1C#N (single isomer, unassigned) [Example 10]
15 | 0.033 µM | > 10 µM | CNc1nc(-c2ccc3c(c2)[C@H](C)N(C2CCC(=O)NC2=O)C3=O)cc(C)c1C (stereo partly drawn) [Example 12, 3-((S)-5-(4,5-Dimethyl-6-(methylamino)pyridin-2-yl)-3-methyl-1-oxoisoindolin-2-yl) piperidine-2,6-dione]
16 | 0.003 µM | > 10 µM | Cc1cc(-c2ccc3c(c2F)CN(C2CCC(=O)NC2=O)C3=O)nc(N)c1C#N (stereo not shown) [Example 3, 2-Amino-6-(2-(2,6-dioxopiperidin-3-yl)-4-fluoro-1-oxoisoindolin-5-yl)-4-methylnicotinonitrile]
17 | 1.4 µM | > 10 µM | Cc1cc(-c2ccc3c(c2C)CN(C2CCC(=O)NC2=O)C3=O)nc(N)c1C#N (stereo not shown) [Example 1, 2-amino-6-(2-(2,6-dioxopiperidin-3-yl)-4-methyl-1-oxoisoindolin-5-yl)-4-methylnicotinonitrile]
18 | 0.7 µM | > 10 µM | Cc1cc(-c2ccc3c(c2F)[C@H](C)N(C2CCC(=O)NC2=O)C3=O)nc(N)c1F (stereo partly drawn) [Example 30, 3-((S)-5-(6-Amino-5-fluoro-4-methylpyridin-2-yl)-4-fluoro-3-methyl-1-oxoisoindolin-2-yl)piperidine-2,6-dione]

Row | SMILES | DC50 (Helios) | DC50 (Ikaros)
19 | Cc1cc(-c2ccc3c(c2F)[C@@H](C)N(C2CCC(=O)NC2=O)C3=O)nc(N)c1C#N (stereo partly drawn) [Example 23, 2-Amino-6-((3R)-2-(2,6-dioxopiperidin-3-yl)-4-fluoro-3-methyl-1-oxoisoindolin-5-yl)-4-methylnicotinonitrile] | 0.035 µM | > 10 µM
